In the NIST ThermoML archive (doi:10.1016/j.jct.2005.08.005):

Assay: refractive index (other wavelength) (dimensionless); xn = mol fraction of the nth substance listed
Conditions: 101.3 kPa, Liquid, Wavelength=632.8 nm, Method described in references 3 and 4 of the article

N#Cc1ccccc1 [benzonitrile] + CCCCCCCCCCCCCCCC
Conditions | refractive index
294.62 K, x1 = 1 | 1.5246
295.4 K, x1 = 0.0997 | 1.4353
296.2 K, x1 = 0.1982 | 1.4385
296.22 K, x1 = 0.3022 | 1.4432
296.49 K, x1 = 0.8855 | 1.499
296.97 K, x1 = 1 | 1.5235
297.19 K, x1 = 0.0997 | 1.4346
297.59 K, x1 = 0.1982 | 1.438
298.03 K, x1 = 0.3972 | 1.4472
298.19 K, x1 = 0.3022 | 1.4423
298.57 K, x1 = 0.8855 | 1.498
299.03 K, x1 = 0.0997 | 1.4338
299.08 K, x1 = 1 | 1.5224
299.56 K, x1 = 0.3972 | 1.4466
299.75 K, x1 = 0.3022 | 1.4416
299.78 K, x1 = 0.1982 | 1.437
300.77 K, x1 = 0.0997 | 1.433
301.05 K, x1 = 0.3022 | 1.441
301.05 K, x1 = 0.8855 | 1.4969
301.17 K, x1 = 0.1982 | 1.4365
301.26 K, x1 = 0.3972 | 1.4459
301.39 K, x1 = 1 | 1.5213
301.64 K, x1 = 0.1982 | 1.4362
302.7 K, x1 = 0.0997 | 1.4323
302.75 K, x1 = 0.3972 | 1.4452
302.86 K, x1 = 0.3022 | 1.4403
302.96 K, x1 = 0.4976 | 1.4519
303.42 K, x1 = 1 | 1.5203
303.45 K, x1 = 0.7947 | 1.481
303.59 K, x1 = 0.8855 | 1.4957
303.7 K, x1 = 0.4976 | 1.4515
303.82 K, x1 = 0.1982 | 1.4353
304.08 K, x1 = 0.0997 | 1.4317
304.21 K, x1 = 0.3972 | 1.4446
304.25 K, x1 = 0.3022 | 1.4397
304.25 K, x1 = 0.4976 | 1.4512
304.4 K, x1 = 0.7947 | 1.4806
304.69 K, x1 = 0.595 | 1.4585
304.73 K, x1 = 0.4976 | 1.451
305.22 K, x1 = 0.7947 | 1.4802
305.41 K, x1 = 0.3972 | 1.444
305.44 K, x1 = 0.6854 | 1.4668
305.47 K, x1 = 0.595 | 1.4582
305.66 K, x1 = 0.1982 | 1.4346
305.66 K, x1 = 0.4976 | 1.4507
305.86 K, x1 = 0.0997 | 1.4309
305.86 K, x1 = 0.3022 | 1.439
305.89 K, x1 = 0.7947 | 1.4799
305.92 K, x1 = 1 | 1.5191
305.98 K, x1 = 0.8855 | 1.4946
306.25 K, x1 = 0.6854 | 1.4665
306.37 K, x1 = 0.595 | 1.4578
306.66 K, x1 = 0.6854 | 1.4663
306.68 K, x1 = 0.7947 | 1.4795
307.36 K, x1 = 0.595 | 1.4574
307.66 K, x1 = 0.6854 | 1.4658
307.86 K, x1 = 0.8855 | 1.4937
308.18 K, x1 = 0.595 | 1.457
308.42 K, x1 = 0.6854 | 1.4655
